In data set [1] the test system is Mycobacterium tuberculosis. In words: Antitubercular activity against Mycobacterium tuberculosis H37Rv assessed as inhibition of bacterial growth incubated for 6 days by Alamar Blue based assay. The data set is classed as functional. Particulars: 144 h, time 6 day. For orientation: The colour change of resazurin is a common sign of viable cells or microbes.
Data set [2] deals with Mycobacterium tuberculosis. In words: Antitubercular activity against Mycobacterium tuberculosis H37Rv. It is filed as functional.
Data set [3] in a line: Cytotoxicity against mouse primary astrocytes assessed as reduction in cell viability measured after 24 hrs by MTT assay. The data set is classed as toxicity, cell-based, Astrocyte. On the technique in general: Tetrazolium assays rely on reduction of a dye to a coloured formazan, in cell work by metabolically active cells.
Data set [4] in a line: Protein binding in human plasma at 150 uM by equilibrium dialysis method. The data set is classed as ADME, cell-free. The following applies: read-out: PPB (converted). (Equilibrium dialysis compares concentrations on both sides of a semipermeable membrane.)
A short description of data set [5]: Metabolic stability in human liver microsomes at 50 uM measured after 30 mins by LC-MS/MS analysis. The data set is classed as ADME, Microsome. Particulars: read-out: Stability.
The nature of data set [6]: Solubility of the compound at 5 mM at pH 7.4 by HPLC analysis. The data set is classed as physicochemical. The following applies: buffer.
A short description of data set [7]: Metabolic stability in human plasma at 50 uM measured after 60 mins by LC-MS/MS analysis. The data set is classed as ADME, cell-free. Particulars: read-out: Stability.
Another data set deals with HEK293. Nature of the data set: Cytotoxicity against HEK293 cells assessed as reduction in cell viability at >45 uM measured after 24 hrs by MTT assay. It is filed as toxicity, cell-based. The following applies: human, hek293, 24 h.
Data set [8] is described as follows: Selectivity index, ratio of IC50 for cytotoxicity against HEK293 cells to MIC for antitubercular activity against Mycobacterium tuberculosis H37Rv. The following applies: human, read-out: Ratio IC50. It is filed as toxicity, cell-based.
The nature of data set [9]: Solubility of the compound at 5 mM at pH 4.5 by HPLC analysis. It is filed as physicochemical. Particulars: buffer.
A short description of data set [10]: Selectivity index, ratio of IC50 for cytotoxicity against mouse primary astrocytes cells to MIC for antitubercular activity against Mycobacterium tuberculosis H37Rv. The data set is classed as toxicity, cell-based. Particulars: read-out: Ratio IC50.
A short description of data set [11]: Solubility of the compound at 5 mM at pH 1.2 by HPLC analysis. The data set is classed as physicochemical. Particulars: buffer.
The nature of data set [12]: Solubility of the compound at 5 mM at pH 2.2 by HPLC analysis. The data set is classed as physicochemical. Particulars: buffer.
Data set [13] can be described thus: Metabolic stability in mouse liver microsomes at 50 uM measured after 30 mins by LC-MS/MS analysis. The data set is classed as ADME, Microsome. Particulars: read-out: Stability.
A short description of data set [14]: Solubility of the compound at 5 mM at pH 10.2 by HPLC analysis. The data set is classed as physicochemical. The following applies: buffer.

Values after ≈ are worked out from the molar mass of the structure shown.

The source of these data is ChEMBL document CHEMBL5634080, “Synthesis, biological evaluation and docking studies of silicon incorporated diarylpyrroles as MmpL3 inhibitors: An effective strategy towards development of potent anti-tubercular agents” (Eur J Med Chem, 2023).

As for `COc1ccc(-c2c(CN3CC[Si](C)(C)CC3)cc(C)n2-c2ccc(F)cc2)cc1`, the MIC in data set [1] came to 7.4 µM (≈ 3.13 µg/mL).

Turning to `COc1ccc(-c2cc(CN3CC[Si](C)(C)CC3)c(C)n2-c2ccc(F)cc2)cc1`, the MIC in [1] amounted to 1.5 µM (≈ 0.634 µg/mL).

For `CCc1ccc(-n2c(C)cc(CN3CC[Si](C)(C)CC3)c2-c2ccc(OC)cc2)cc1`, the MIC in [1] was 23.1 µM (≈ 10 µg/mL).

Regarding `Cc1c(C(=O)NN2CCCCC2)nn(-c2ccc(Cl)cc2Cl)c1-c1ccc(Cl)cc1` [RIMONABANT], the MIC in [2] was 54 µM (≈ 25 µg/mL).

For `Cc1c(CN2CC[Si](C)(C)CC2)cc(-c2ccc(Cl)cc2)n1-c1ccc(Cl)cc1`, the IC50 at 24 h in data set [3] is greater than 20 µM. For the same compound, the fraction unbound at 150 µM in data set [4] was 0.0002. Moreover, the remaining at 0.5 h, 50 µM was 56.7% in data set [5] and 86.3% in data set [13]. In addition, the solubility at 5000 µM in data set [6] turned out to be 4.73 µM (≈ 2.1 µg/mL); in [9], 36.7 µM (≈ 16.3 µg/mL); in data set [11], 38.8 µM (≈ 17.2 µg/mL); in data set [12], 39.1 µM (≈ 17.3 µg/mL). In addition, in [7], the remaining at 1 h, 50 µM came to 99.4%. Further, the MIC in [1] turned out to be 0.1 µM (≈ 0.0443 µg/mL). The Activity entry in the data set on HEK293 was “Non-Toxic”. For the same compound, the selectivity ratio in data set [8] and in data set [10] was greater than 250 throughout.

With `C[Si]1(C)CCN(Cc2cc(-c3ccc(Cl)cc3)n(-c3ccc(Cl)cc3)n2)CC1`, in [2], the minimum inhibitory concentration (MIC) worked out at 0.07 µM (≈ 0.0301 µg/mL).

In the case of `CSc1ccc(-c2c(CN3CC[Si](C)(C)CC3)cc(C)n2-c2ccc(F)cc2)cc1`, the MIC in data set [1] was 3.6 µM (≈ 1.58 µg/mL).

As to `Cc1ccc(-c2cc(CN3CC[Si](C)(C)CC3)c(C)n2-c2ccc(F)cc2)cc1`, the IC50 at 24 h in data set [3] was greater than 20 µM. For the same compound, in data set [4], the fraction unbound at 150 µM was 0.0009. Also, the remaining at 0.5 h, 50 µM was determined as 36.4% in data set [5] and 45.1% in [13]. Besides, the solubility at 5000 µM in [6] turned out to be 26.8 µM (≈ 10.9 µg/mL); in [14], 3.13 µM (≈ 1.27 µg/mL); in data set [9] it was 42.6 µM (≈ 17.3 µg/mL); in data set [11] it was 43.7 µM (≈ 17.8 µg/mL); in [12], 42.1 µM (≈ 17.1 µg/mL). Moreover, the remaining at 1 h, 50 µM in data set [7] was determined as 96.9%. In addition, in [1], the MIC amounted to 0.1 µM (≈ 0.0407 µg/mL). Also, in the data set with HEK293, the Activity result was “Non-Toxic”. Also, the selectivity ratio in [8] and in [10] was greater than 250 in each case.

As for `Cc1c(CN2CCN(C)CC2)cc(-c2ccc(Cl)cc2)n1-c1ccc(Cl)cc1`, the figures for the remaining at 0.5 h, 50 µM in data set [5] and in data set [13] were 79.8% and 62.4%, respectively. Moreover, the solubility at 5000 µM in data set [6] is 26.7 µM (≈ 11.1 µg/mL); in data set [14] it was 5.38 µM (≈ 2.23 µg/mL); in data set [9], 36.7 µM (≈ 15.2 µg/mL); in data set [11], 45.2 µM (≈ 18.7 µg/mL); in [12] it was 42.2 µM (≈ 17.5 µg/mL). The MIC in data set [1] is 1.7 µM (≈ 0.704 µg/mL).

For the compound `CSc1ccc(-c2cc(CN3CC[Si](C)(C)CC3)c(C)n2-c2ccc(F)cc2)cc1`, the MIC in data set [1] came out at 0.2 µM (≈ 0.0877 µg/mL).

Consider `Cc1c(CN2CC[Si](C)(C)CC2)cc(-c2ccc(Cl)cc2)n1-c1ccccc1`, for which the MIC in data set [1] amounted to 0.1 µM (≈ 0.0409 µg/mL).

In the case of `CCc1ccc(-n2c(-c3ccc(Cl)cc3)cc(CN3CC[Si](C)(C)CC3)c2C)cc1`, the IC50 at 24 h in data set [3] was greater than 20 µM. Also, the fraction unbound at 150 µM in [4] is 0.0002. Also, the figures for the remaining at 0.5 h, 50 µM in data set [5] and in data set [13] were 60.8% and 75.5%, respectively. In addition, the solubility at 5000 µM in [6] was found to be 1.19 µM (≈ 0.52 µg/mL); in data set [14], 12.9 µM (≈ 5.65 µg/mL); in [9], 32.6 µM (≈ 14.3 µg/mL); in [11], 9.86 µM (≈ 4.31 µg/mL); in [12], 37.2 µM (≈ 16.3 µg/mL). Besides, in [7], the remaining at 1 h, 50 µM is 95.7%. The MIC in data set [1] was determined as 0.1 µM (≈ 0.0437 µg/mL). The Activity result in the data set with HEK293 was “Non-Toxic”. The selectivity ratio in data set [8] and in data set [10] was greater than 250 in each case.

For `CCc1ccc(-n2c(-c3ccc(OC)cc3)cc(CN3CC[Si](C)(C)CC3)c2C)cc1`, the MIC in data set [1] came to 1.5 µM (≈ 0.649 µg/mL).

On to `CCc1ccc(-c2cc(CN3CC[Si](C)(C)CC3)c(C)n2-c2ccc(OC)cc2)cc1`, for which the minimum inhibitory concentration (MIC) in [1] came out at 0.2 µM (≈ 0.0865 µg/mL).

For `NNC(=O)c1ccncc1` [ISONIAZID], in data set [1], the MIC turned out to be 2.2 µM (≈ 0.302 µg/mL).

A word on the MIC: it is the smallest concentration in the dilution series that meets the test's criterion for growth inhibition. Usually IC50 stands for the point on the concentration scale where inhibition reaches its midpoint. A word on the solubility: it is the dissolved amount per volume that the medium holds. A lower solubility goes with little dissolved substance.
